Patent publication US8105797B2, “Diagnostic test” (priority 2004, dated 2012)

Test system: PBMCs from healthy unexposed BCG-vaccinated donors
Type: cell-based, human

Row | Sequence | response of BCG-vaccinated unexposed donor to individual peptide
1 | ESLVSDGLPGVKAAL (listed as Mycobacterium tuberculosis) [61-75, from Rv3878] | responded
2 | YFIRMWNQAALAMEV (listed as Mycobacterium tuberculosis) [139-153, from pool 2 of Rv3873] | responded
3 | DTFYDRAQEYSQVLQ (listed as Mycobacterium tuberculosis) [26-40, from Rv3879c, pool 1] | responded
4 | AAKLAGLVFPQPPAP (listed as Mycobacterium tuberculosis) [16-30, from Rv3878] | responded
5 | LTATNFFGINTIPIA [119-133] | responded
6 | LDPGASQSTTNPIFG (listed as Mycobacterium tuberculosis) [peptide 174-188, from Rv3873] | responded
